Results on 21 molecules are retold here after US20120172384A1, “HETEROCYCLYLAMINOPYRIMIDINES AS KINASE INHIBITORS” (priority 2009, published 2012).

One test has as its target T1, ZAP-70 (Homo sapiens, UniProt P43403).
T1 construct: endogenous in cells
T1 sequence (P43403 1-619): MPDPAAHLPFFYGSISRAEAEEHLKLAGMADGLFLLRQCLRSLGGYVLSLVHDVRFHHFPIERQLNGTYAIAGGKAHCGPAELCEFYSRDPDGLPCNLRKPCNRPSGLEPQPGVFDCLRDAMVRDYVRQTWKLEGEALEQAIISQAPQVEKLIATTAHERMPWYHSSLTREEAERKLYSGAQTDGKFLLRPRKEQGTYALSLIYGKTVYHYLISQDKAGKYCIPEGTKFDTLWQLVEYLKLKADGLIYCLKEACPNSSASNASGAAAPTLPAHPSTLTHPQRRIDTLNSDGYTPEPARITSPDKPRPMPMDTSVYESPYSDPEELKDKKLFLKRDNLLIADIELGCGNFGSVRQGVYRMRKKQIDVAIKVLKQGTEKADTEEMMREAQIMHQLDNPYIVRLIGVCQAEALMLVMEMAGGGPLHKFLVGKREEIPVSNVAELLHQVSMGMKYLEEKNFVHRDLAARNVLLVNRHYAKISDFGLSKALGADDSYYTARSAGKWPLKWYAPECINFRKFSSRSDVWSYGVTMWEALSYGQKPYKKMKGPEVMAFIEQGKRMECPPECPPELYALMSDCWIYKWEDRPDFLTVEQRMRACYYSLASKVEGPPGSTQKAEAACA
The experiment in a line: ZAP-70 kinobeads assay. The settings on record: cell lysate, dot blot with ZAP-70 antibody. Format: binding. How it is done: The compounds of the present invention as described in the previous examples were tested in the ZAP-70 kinobeads assay as described (EP-A 1862802 and WO-A 2007/137867). Briefly, test compounds (at various concentrations) and the affinity matrix with the immobilized aminopyrido-pyrimidine ligand 24 are added to cell lysate aliquots and allowed to bind to the proteins in the lysate sample. After the incubation time the beads with captured proteins are separated from the lysate. Bound proteins are then eluted and the presence ZAP-70 is detected and quantified using a specific antibody in a dot blot procedure and the Odyssey infrared detection system.

In another test the target is T2, JAK3 (Homo sapiens, UniProt P52333).
T2 construct: endogenous in cells
T2 sequence (P52333 1-1124): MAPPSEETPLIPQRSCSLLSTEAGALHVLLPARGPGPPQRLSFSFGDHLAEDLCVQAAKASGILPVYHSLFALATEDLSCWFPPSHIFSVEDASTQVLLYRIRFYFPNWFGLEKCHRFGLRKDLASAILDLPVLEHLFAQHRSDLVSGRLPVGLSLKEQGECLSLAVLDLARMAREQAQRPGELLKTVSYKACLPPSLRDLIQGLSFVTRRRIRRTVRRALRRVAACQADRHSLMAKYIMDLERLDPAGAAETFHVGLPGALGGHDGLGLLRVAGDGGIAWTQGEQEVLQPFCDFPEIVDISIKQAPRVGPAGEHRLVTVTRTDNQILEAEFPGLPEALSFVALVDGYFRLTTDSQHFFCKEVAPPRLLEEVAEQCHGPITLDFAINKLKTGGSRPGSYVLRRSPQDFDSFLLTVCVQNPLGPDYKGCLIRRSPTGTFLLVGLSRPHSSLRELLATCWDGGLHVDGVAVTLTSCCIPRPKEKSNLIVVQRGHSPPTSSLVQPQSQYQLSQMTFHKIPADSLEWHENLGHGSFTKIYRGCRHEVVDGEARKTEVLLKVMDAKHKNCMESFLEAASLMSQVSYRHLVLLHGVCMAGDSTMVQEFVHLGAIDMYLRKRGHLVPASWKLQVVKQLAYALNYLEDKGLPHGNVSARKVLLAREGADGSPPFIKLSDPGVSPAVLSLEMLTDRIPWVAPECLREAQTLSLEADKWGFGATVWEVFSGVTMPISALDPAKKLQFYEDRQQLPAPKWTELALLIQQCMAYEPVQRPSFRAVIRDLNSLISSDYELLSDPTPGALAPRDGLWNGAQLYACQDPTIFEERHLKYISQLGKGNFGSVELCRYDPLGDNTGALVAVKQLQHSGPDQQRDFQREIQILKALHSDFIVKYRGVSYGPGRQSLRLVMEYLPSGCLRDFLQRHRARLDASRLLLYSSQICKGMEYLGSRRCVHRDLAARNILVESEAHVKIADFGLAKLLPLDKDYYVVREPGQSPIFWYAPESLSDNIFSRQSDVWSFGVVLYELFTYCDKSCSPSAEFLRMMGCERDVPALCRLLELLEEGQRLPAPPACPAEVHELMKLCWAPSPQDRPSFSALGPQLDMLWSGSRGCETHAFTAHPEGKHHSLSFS
The experiment in a line: JAK3 kinobeads assay. The settings on record: cell lysate, dot blot with JAK3 specific antibody. The class given is binding. The procedure, abridged: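 In this competition pulldown, test compounds at various concentrations were incubated in cell lysate together with beads carrying an immobilized aminopyrido-pyrimidine ligand. Bead-bound proteins were eluted, and JAK3 was quantified by dot blot with a JAK3-specific antibody and infrared detection.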

Several values for one entry are separate records, joined by “and”; a condition that tells them apart may be missing. Equal entries are not always repeated.

For the molecule `COc1ccc(Nc2nc(Nc3cnn(C)c3C)ncc2Cl)c(NS(C)(=O)=O)c1` [Example 67, N-(2-((5-chloro-2-((1,5-dimethyl-1H-pyrazol-4-yl)amino)pyrimidin-4-yl)amino)-5-methoxyphenyl)methanesulfonamide], the IC50 was at most 0.1 µM on ZAP-70 and 0.1 to 1 µM at JAK3.
For `CCn1cc(Nc2ncc(Cl)c(Nc3ccccc3NS(C)(=O)=O)n2)c(C)n1` [Example 33, N-(2-(5-chloro-2-(1-ethyl-3-methyl-M-pyrazol-4-ylamino)pyrimidin-4-ylamino)phenyl)methanesulfonamide], in that order: 0.1 to 1 µM and at most 0.1 µM.
For `COc1ccc(Nc2nc(Nc3ccon3)ncc2F)c(NS(C)(=O)=O)c1` [Example 36, N-(2-(5-fluoro-2-(isoxazol-3-ylamino)pyrimidin-4-ylamino)-5-methoxyphenyl)methanesulfonamide], in that order: 1 to 10 µM and 0.1 to 1 µM.
As for `COc1ccc(Nc2nc(Nc3cc(C(C)C)nn3C)ncc2Cl)c(NS(C)(=O)=O)c1` [Example 11, N-(2-(5-chloro-2-(3-isopropyl-1-methyl-1H-pyrazol-5-ylamino)pyrimidin-4-ylamino)-5-methoxyphenyl)methanesulfonamide], the IC50 against ZAP-70 and at JAK3 was 0.1 to 1 µM in each case.
Turning to `Cc1nn(C)cc1Nc1ncc(Cl)c(Nc2ccccc2NS(C)(=O)=O)n1` [Example 35, N-(2-(5-chloro-2-(1,3-dimethyl-1H-pyrazol-4-ylamino)pyrimidin-4-ylamino)phenyl)methanesulfonamide], the IC50 at ZAP-70 and against JAK3 was at most 0.1 µM each time.
For `Cn1cc(Nc2ncc(F)c(Nc3ccccc3NS(C)(=O)=O)n2)cn1` [Example 22, N-(2-(5-fluoro-2-(1-methyl-1H-pyrazol-4-ylamino)pyrimidin-4-ylamino)phenyl)methanesulfonamide], the concentration for half-maximal inhibition (IC50) is 0.1 to 1 µM on ZAP-70 and at most 0.1 µM against JAK3.
As for `COc1ccc(Nc2nc(Nc3c[nH]nc3C)ncc2Cl)c(NS(C)(=O)=O)c1` [Example 2, N-(2-(5-chloro-2-(3-methyl-1H-pyrazol-4-ylamino)pyrimidin-4-ylamino)-5-methoxyphenyl)methanesulfonamide], the IC50 on ZAP-70 and against JAK3 was at most 0.1 µM each time.
As for `CCn1cc(Nc2ncc(Cl)c(Nc3ccc(OC)cc3NS(C)(=O)=O)n2)c(C)n1` [Example 28, N-(2-(5-chloro-2-(1-ethyl-3-methyl-1H-pyrazol-4-ylamino)pyrimidin-4-ylamino)-5-methoxyphenyl)methanesulfonamide], the figures for the IC50 on ZAP-70 and against JAK3 were 0.1 to 1 µM and at most 0.1 µM, respectively.
The matching figures for `COc1ccc(Nc2nc(Nc3ccon3)ncc2Cl)c(NS(C)(=O)=O)c1` [Example 3, N-(2-(5-chloro-2-(isoxazol-3-ylamino)pyrimidin-4-ylamino)-5-methoxyphenyl)methanesulfonamide]: 0.1 to 1 µM and at most 0.1 µM.
The matching figures for `Cn1ccc(Nc2ncc(Br)c(Nc3ccccc3NS(C)(=O)=O)n2)n1` [Example 43, N-(2-((5-bromo-2-((1-methyl-1H-pyrazol-3-yl)amino)pyrimidin-4-yl)amino)phenyl)methanesulfonamide]: 0.1 to 1 µM and at most 0.1 µM.
Regarding `COc1ccc(Nc2nc(Nc3ccn(C)n3)ncc2Cl)c(NS(C)(=O)=O)c1` [Example 4, N-(2-(5-chloro-2-(1-methyl-1H-pyrazol-3-ylamino)pyrimidin-4-ylamino)-5-methoxyphenyl)methanesulfonamide], the IC50 is 0.1 to 1 µM at ZAP-70; 0.1 to 1 µM and ≤ 0.1 µM against JAK3.
In the case of `COc1ccc(Nc2nc(Nc3ccn(C)n3)ncc2F)c(NS(C)(=O)=O)c1` [Example 7, N-(2-(5-fluoro-2-(1-methyl-1H-pyrazol-3-ylamino)pyrimidin-4-ylamino)-5-methoxyphenyl)methanesulfonamide], the IC50 on ZAP-70 and against JAK3 was 0.1 to 1 µM each time.
In the case of `CCn1cc(Nc2ncc(F)c(Nc3ccc(OC)cc3NS(C)(=O)=O)n2)c(C)n1` [Example 34, N-(2-(2-(1-ethyl-3-methyl-1H-pyrazol-4-ylamino)-5-fluoropyrimidin-4-ylamino)-5-methoxyphenyl)methanesulfonamide], the IC50 against ZAP-70 and on JAK3 was 0.1 to 1 µM in each case.
For the molecule `Cn1ccc(Nc2ncc(F)c(Nc3ccccc3NS(C)(=O)=O)n2)n1` [Example 1, N-(2-(5-fluoro-2-(1-methyl-1H-pyrazol-3-ylamino)pyrimidin-4-ylamino)phenyl)methanesulfonamide], the IC50 was in the range of 1 to 10 µM at ZAP-70 and 0.1 to 1 µM against JAK3.
Turning to `COc1ccc(Nc2nc(Nc3c(C)nn(C)c3C)ncc2Cl)c(NS(C)(=O)=O)c1` [Example 13, N-(2-(5-chloro-2-(1,3,5-trimethyl-1H-pyrazol-4-ylamino)pyrimidin-4-ylamino)-5-methoxyphenyl)methanesulfonamide], the results for the IC50 on ZAP-70 and against JAK3 were 0.1 to 1 µM and 1 to 10 µM, respectively.
The matching figures for `CCn1cc(Nc2ncc(F)c(Nc3ccccc3NS(C)(=O)=O)n2)c(C)n1` [Example 37, N-(2-(2-(1-ethyl-3-methyl-1H-pyrazol-4-ylamino)-5-fluoropyrimidin-4-ylamino)phenyl)methanesulfonamide]: 1 to 10 µM and 0.1 to 1 µM.
`Cc1nn(C)cc1Nc1ncc(F)c(Nc2ccccc2NS(C)(=O)=O)n1` [Example 30, N-(2-(2-(1,3-dimethyl-1H-pyrazol-4-ylamino)-5-fluoropyrimidin-4-ylamino)phenyl)methanesulfonamide]: the IC50 against ZAP-70 and on JAK3 was 0.1 to 1 µM each time.
As for `COc1ccc(Nc2nc(Nc3cn(C)nc3C)ncc2F)c(NS(C)(=O)=O)c1` [Example 32, N-(2-(2-(1,3-dimethyl-M-pyrazol-4-ylamino)-5-fluoropyrimidin-4-ylamino)-5-methoxyphenyl)methanesulfonamide], the IC50 at ZAP-70 and on JAK3 was 0.1 to 1 µM in each case.
For the molecule `CS(=O)(=O)Nc1ccccc1Nc1nc(Nc2cnoc2)ncc1Cl` [Example 44, N-(2-((5-chloro-2-(isoxazol-4-ylamino)pyrimidin-4-yl)amino)phenyl)methanesulfonamide], the IC50 lay in the range of 1 to 10 µM against ZAP-70 and 0.1 to 1 µM against JAK3.
`CCn1nccc1Nc1ncc(Cl)c(Nc2ccc(OC)cc2NS(C)(=O)=O)n1` [Example 29, N-(2-(5-chloro-2-(1-ethyl-1H-pyrazol-5-ylamino)pyrimidin-4-ylamino)-5-methoxyphenyl)methanesulfonamide]: the IC50 on ZAP-70 fell in the range of 0.1 to 1 µM; at JAK3 it was 1 to 10 µM.
For the molecule `CCn1ccc(Nc2ncc(Cl)c(Nc3ccccc3NS(C)(=O)=O)n2)n1` [Example 42, N-(2-(5-chloro-2-(1-ethyl-1H-pyrazol-3-ylamino)pyrimidin-4-ylamino)phenyl)methanesulfonamide], the IC50 was 0.1 to 1 µM on ZAP-70 and at most 0.1 µM at JAK3.

As usually defined, the IC50 is the concentration that gives 50% inhibition. A high value points to weaker potency.
